Test system: cardiomyocytes
Assay: Cell survival of cardiomyocytes, MTT assay, 72 hours in PBS free of serum and nutrients, hypoxic condition
Assay type: cell-based, Wister rat
Conditions: 0 nM = 100%
Description: An 8 weeks old Wister rat was injected with ketamine and pentobarbital to quickly kill the […], and the heart was quickly separated from the mouse. An aorta was used to perfuse with Ca free Krebs-Henseleit buffer (KHB) solution, which was pre-heated to a temperature of about 34° C. to about 37° C., in heart direction. Thereafter, the KHB solution was switched to Hank's balanced salt solution (HBSS:GIBCO, Grand Island, N.Y.) containing 0.15% class II collagenase (Cooper Biomedical, Malvern, Pa.) and then perfused for about 30 to about 40 minutes. Thereafter, the product obtained therefrom was washed twice with a cell culture medium (Dulbecco's modified Eagle's medium, DMEM). Ventricles and atria were separated therefrom, ventricular tissues were thoroughly chopped and then stirred thoroughly for about 5 minutes in a shaker filled with cell culture medium (DMEM) containing class II collagenase that was pre-heated to a temperature of about 34° C. to about 37° C. Connective tissues that were not dissolved were filtered and a collagenase-containing solution was washed twice with the cell culture medium (DMEM). The product obtained therefrom was gently centrifuged at a speed of 10 g for 2 minutes, a supernatant obtained therefrom was separated and removed, and cell components were washed three times with a cell culture medium (DMEM) solution containing 1% fetal bovine serum (FBS; Sigma Chemical, St. Louis, Mo.). Thereafter, the cells obtained therefrom were stabilized in a cell culture medium (DMEM), 10% FBS, 10 mM N-2-hydroxyethylpiperazine-N′-2-ethanesulfonic acid (HEPES, GIBCO Laboratories, Grand Island, N.Y.), 2 mM L-glutamine, penicilin-stereptomycin (100 IU/mL, GIBCO) for 60 minutes.
Thereafter, the cells were divided in a 6-well plate at a density of 20×10^3 cells/cm^2 and then bromodeoxyuridine (BrdU, 10 uM, Sigma-Aldrich) was added to the cell culture medium over 3 days to prevent the proliferation of fibroblasts and progenitor cells (Lokuta et al, 1994; Miragoli et al., 2006). The cells were cultured in an incubator under conditions of 95% of O2, 5% of CO2, and a temperature of 37° C. for the next experiment.
Cells were seeded in a 96-well plate at a density of 2×10^4 cells/well and 200 ul for each well. In this regard, cell confluence was set at about 70% to about 80%. After 24 hours, when the cells have been stabilized, a 26 gauge or 28 gauge needle was used to remove a preexisting medium from the wells. 200 ul of PBS free of serum and nutrients was added to each well, the wells were divided into erythropoietin (EPO) treatment groups and MKX-2 treatment groups, which were further divided into experimental groups according to concentrations of 0 nM, 0.1 nM, 1 nM, 10 nM, 100 nM, and 1000 nM and then treated with a drug for 72 hours in a hypoxic condition, and then the cells were subjected to an MTT assay to compare cell survival rates. The EPO used was an Eporon injection (Dong-A Pharmaceuticals, Korea). All experimental groups for each concentration included 7 wells.
After a predetermined treatment time, 3-[4,5-dimethylthiazol-2-yl]-2,5-diphenyl tetrazolium bromide (MIT, Sigma, M2128) that was dissolved in a phosphate buffered saline (PBS) and then sterilization filtered by using a membrane filter having a thickness of 0.22 um was added to each well in an amount of 100 ul at a concentration of 1 mg/ml. In this regard, an MTT reagent was used after wrapping the MTT reagent with a foil sheet to block from light. […]

EPO: erythropoietin; the EPO used was an Eporon injection (Dong-A Pharmaceuticals, Korea)
cell survival rate compared with 0 nM (0.1 nM): not substantially different | cell survival rate compared with the initial condition (1 nM): substantially decreased | cell survival rate (10 nM): 94.52 ± 4.36% | cell survival rate (100 nM): 102.64 ± 2.69% | cell survival rate (1000 nM): 106.97 ± 1.99%

From US20140378378A1, “ERYTHROPOIETIN-DERIVED PEPTIDE AND USE THEREFOR” (priority 2011, published 2014)
